Experiments:
Test in all cases: relative viability (nuclei count vs DMSO), 5 days (fraction); higher = more cells survive
201T = test system: 201T
Outline: (§1)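 Lung cancer cell lines were pin-tool dosed in 1536-well plates on the day after seeding, with either a lone drug or a fixed anchor-drug dose plus five library-drug doses (not always all listed) in √10 steps. Nuclei were counted on 4× images after 5 days. Relative viability is the ratio of treated-well to vehicle-well nuclei counts, with each value a median of duplicate plates.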

ABC-1 = test system: ABC-1
Outline: as §1

BEN = test system: BEN
Outline: as §1

CAL-12T = test system: CAL-12T
Outline: as §1

COR-L 105 = test system: COR-L 105
Outline: as §1

EKVX = test system: EKVX
Outline: as §1

HARA = test system: HARA
Outline: as §1

HCC-366 = test system: HCC-366
Outline: as §1

LK-2 = test system: LK-2
Outline: as §1

LOU-NH91 = test system: LOU-NH91
Outline: as §1

NCI-H1437 = test system: NCI-H1437
Outline: as §1

NCI-H1650 = test system: NCI-H1650
Outline: as §1

NCI-H1666 = test system: NCI-H1666
Outline: as §1

NCI-H2009 = test system: NCI-H2009
Outline: as §1

NCI-H2170 = test system: NCI-H2170
Outline: as §1

NCI-H3122 = test system: NCI-H3122
Outline: as §1

NCI-H441 = test system: NCI-H441
Outline: as §1

NCI-H460 = test system: NCI-H460
Outline: as §1

NCI-H661 = test system: NCI-H661
Outline: as §1

NCI-H727 = test system: NCI-H727
Outline: as §1

PC-14 = test system: PC-14
Outline: as §1

SW 900 = test system: SW 900
Outline: as §1

SMILES: CCN(CC)CCCCNc1ncc2cc(-c3cc(OC)cc(OC)c3)c(NC(=O)NC(C)(C)C)nc2n1 + COc1cccc2cc(-c3nc([C@H]4CC[C@H](C(=O)O)CC4)n4ncnc(N)c34)[nH]c12 [OSI-027] (partner 0.5 µM)
- relative viability (201T; first compound 0.01 µM): 0.615
- relative viability (201T; first compound 0.03162 µM): 0.658
- relative viability (201T; first compound 0.1 µM): 0.927
- relative viability (201T; first compound 0.3162 µM): 0.798
- relative viability (201T; first compound 1 µM): 0.607
- relative viability (ABC-1; first compound 0.01 µM): 0.433
- relative viability (ABC-1; first compound 0.03162 µM): 0.389
- relative viability (ABC-1; first compound 0.1 µM): 0.55
- relative viability (ABC-1; first compound 0.3162 µM): 0.499
- relative viability (ABC-1; first compound 1 µM): 0.402
- relative viability (BEN; first compound 0.01 µM): 0.242
- relative viability (BEN; first compound 0.03162 µM): 0.285
- relative viability (BEN; first compound 0.1 µM): 0.347
- relative viability (BEN; first compound 0.3162 µM): 0.311
- relative viability (BEN; first compound 1 µM): 0.282
- relative viability (CAL-12T; first compound 0.01 µM): 0.623
- relative viability (CAL-12T; first compound 0.03162 µM): 0.736
- relative viability (CAL-12T; first compound 0.1 µM): 0.789
- relative viability (CAL-12T; first compound 0.3162 µM): 0.836
- relative viability (CAL-12T; first compound 1 µM): 0.576
- relative viability (COR-L 105; first compound 0.01 µM): 0.704
- relative viability (COR-L 105; first compound 0.03162 µM): 0.591
- relative viability (COR-L 105; first compound 0.1 µM): 0.749
- relative viability (COR-L 105; first compound 0.3162 µM): 0.826
- relative viability (COR-L 105; first compound 1 µM): 0.417
- relative viability (EKVX; first compound 0.01 µM): 0.734
- relative viability (EKVX; first compound 0.03162 µM): 0.721
- relative viability (EKVX; first compound 0.1 µM): 0.711
- relative viability (EKVX; first compound 0.3162 µM): 0.765
- relative viability (EKVX; first compound 1 µM): 0.671
- relative viability (HARA; first compound 0.01 µM): 0.522
- relative viability (HARA; first compound 0.03162 µM): 0.647
- relative viability (HARA; first compound 0.1 µM): 0.429
- relative viability (HARA; first compound 0.3162 µM): 0.697
- relative viability (HARA; first compound 1 µM): 0.446
- relative viability (HCC-366; first compound 0.01 µM): 1.02
- relative viability (HCC-366; first compound 0.03162 µM): 1.01
- relative viability (HCC-366; first compound 0.1 µM): 1.2
- relative viability (HCC-366; first compound 0.3162 µM): 1.06
- relative viability (HCC-366; first compound 1 µM): 1.24
- relative viability (LK-2; first compound 0.01 µM): 0.193
- relative viability (LK-2; first compound 0.03162 µM): 0.192
- relative viability (LK-2; first compound 0.1 µM): 0.163
- relative viability (LK-2; first compound 0.3162 µM): 0.165
- relative viability (LK-2; first compound 1 µM): 0.196
- relative viability (LOU-NH91; first compound 0.01 µM): 0.672
- relative viability (LOU-NH91; first compound 0.03162 µM): 0.741
- relative viability (LOU-NH91; first compound 0.1 µM): 0.776
- relative viability (LOU-NH91; first compound 0.3162 µM): 0.776
- relative viability (LOU-NH91; first compound 1 µM): 0.696
- relative viability (NCI-H1437; first compound 0.01 µM): 0.978
- relative viability (NCI-H1437; first compound 0.03162 µM): 0.876
- relative viability (NCI-H1437; first compound 0.1 µM): 0.925
- relative viability (NCI-H1437; first compound 0.3162 µM): 0.874
- relative viability (NCI-H1437; first compound 1 µM): 0.857
- relative viability (NCI-H1650; first compound 0.01 µM): 0.7
- relative viability (NCI-H1650; first compound 0.03162 µM): 0.702
- relative viability (NCI-H1650; first compound 0.1 µM): 0.649
- relative viability (NCI-H1650; first compound 0.3162 µM): 0.624
- relative viability (NCI-H1650; first compound 1 µM): 0.4
- relative viability (NCI-H1666; first compound 0.01 µM): 0.896
- relative viability (NCI-H1666; first compound 0.03162 µM): 0.877
- relative viability (NCI-H1666; first compound 0.1 µM): 0.817
- relative viability (NCI-H1666; first compound 0.3162 µM): 1.08
- relative viability (NCI-H1666; first compound 1 µM): 0.851
- relative viability (NCI-H2009; first compound 0.01 µM): 0.678
- relative viability (NCI-H2009; first compound 0.03162 µM): 0.669
- relative viability (NCI-H2009; first compound 0.1 µM): 0.642
- relative viability (NCI-H2009; first compound 0.3162 µM): 0.675
- relative viability (NCI-H2009; first compound 1 µM): 0.604
- relative viability (NCI-H2170; first compound 0.01 µM): 0.768
- relative viability (NCI-H2170; first compound 0.03162 µM): 0.67
- relative viability (NCI-H2170; first compound 0.1 µM): 0.71
- relative viability (NCI-H2170; first compound 0.3162 µM): 0.79
- relative viability (NCI-H2170; first compound 1 µM): 0.75
- relative viability (NCI-H3122; first compound 0.01 µM): 1.06
- relative viability (NCI-H3122; first compound 0.03162 µM): 1.02
- relative viability (NCI-H3122; first compound 0.1 µM): 1.15
- relative viability (NCI-H3122; first compound 0.3162 µM): 1.3
- relative viability (NCI-H3122; first compound 1 µM): 0.922
- relative viability (NCI-H441; first compound 0.01 µM): 0.56
- relative viability (NCI-H441; first compound 0.03162 µM): 0.669
- relative viability (NCI-H441; first compound 0.1 µM): 0.638
- relative viability (NCI-H441; first compound 0.3162 µM): 0.689
- relative viability (NCI-H441; first compound 1 µM): 0.623
- relative viability (NCI-H460; first compound 0.01 µM): 0.879
- relative viability (NCI-H460; first compound 0.03162 µM): 0.677
- relative viability (NCI-H460; first compound 0.1 µM): 0.859
- relative viability (NCI-H460; first compound 0.3162 µM): 0.815
- relative viability (NCI-H460; first compound 1 µM): 0.291
- relative viability (NCI-H661; first compound 0.01 µM): 0.784
- relative viability (NCI-H661; first compound 0.03162 µM): 0.727
- relative viability (NCI-H661; first compound 0.1 µM): 0.779
- relative viability (NCI-H661; first compound 0.3162 µM): 0.743
- relative viability (NCI-H661; first compound 1 µM): 0.48
- relative viability (NCI-H727; first compound 0.01 µM): 0.673
- relative viability (NCI-H727; first compound 0.03162 µM): 0.591
- relative viability (NCI-H727; first compound 0.1 µM): 0.623
- relative viability (NCI-H727; first compound 0.3162 µM): 0.842
- relative viability (NCI-H727; first compound 1 µM): 0.498
- relative viability (PC-14; first compound 0.01 µM): 0.838
- relative viability (PC-14; first compound 0.03162 µM): 1.04
- relative viability (PC-14; first compound 0.1 µM): 1.12
- relative viability (PC-14; first compound 0.3162 µM): 0.974
- relative viability (PC-14; first compound 1 µM): 0.91
- relative viability (SW 900; first compound 0.01 µM): 0.657
- relative viability (SW 900; first compound 0.03162 µM): 0.592
- relative viability (SW 900; first compound 0.3162 µM): 0.634
- relative viability (SW 900; first compound 1 µM): 0.402

From the supplement of paper PMC10307832
